“And” between values parts separate entries of the source, which are not always exact repeats. Equal values may be shown once.
What was measured:
Adenosine A2A receptor [1] = biological target: T1, Adenosine A2A receptor (Homo sapiens, UniProt P29274); assay: cAMP assay in 293A cells stably expressing the adenosine A2A receptor (CGS21680 stimulation, HTRF); assay type: cell-based; parameters: expressed in transfected cells; host or cells: 293A cells (Invitrogen, Cat# R705-07) infected with A2A-expressing lentivirus (custom packaged by Biosettia), puromycin selected; settings: 293A-A2AR cells, 0.1% BSA, values separated by / are repeat determinations
Adenosine A2A receptor [2] = biological target: T1, Adenosine A2A receptor; assay: Adenosine A2A receptor competitive binding assay (Tag-lite HTRF); settings: Tag-lite adenosine A2A receptor ligand binding, 2 h room temperature; values separated by / are repeat determinations
Outline: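 Compound displacement of a red fluorescent antagonist tracer (added at 60 nM stock) from donor-labelled, pre-transfected human A2A cells was read by HTRF after 2 h at room temperature; compound dilutions contained 0.6% DMSO.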

[3] = 8 nM CGS, read-out: cAMP (nM) 0.1% BSA, 8 nM CGS
[4] = 1 uM CGS, read-out: cAMP (nM) 0.1% BSA, 1 uM CGS

T1 sequence (P29274 whole entry): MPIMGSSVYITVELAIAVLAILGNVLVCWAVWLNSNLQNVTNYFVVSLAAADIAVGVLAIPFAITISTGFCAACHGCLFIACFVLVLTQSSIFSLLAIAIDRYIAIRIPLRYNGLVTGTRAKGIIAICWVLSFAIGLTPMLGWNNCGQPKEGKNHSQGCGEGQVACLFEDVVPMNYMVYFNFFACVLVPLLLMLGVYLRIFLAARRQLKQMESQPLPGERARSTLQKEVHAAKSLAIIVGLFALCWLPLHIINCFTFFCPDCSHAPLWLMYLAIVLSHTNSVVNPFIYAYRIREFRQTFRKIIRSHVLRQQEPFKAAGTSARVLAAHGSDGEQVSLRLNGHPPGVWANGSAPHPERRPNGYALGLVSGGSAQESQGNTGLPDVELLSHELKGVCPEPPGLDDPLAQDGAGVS

| IC50 (Adenosine A2A receptor [1]; [3]) | IC50 (Adenosine A2A receptor [2]) | IC50 (Adenosine A2A receptor [1]; [4]) | SMILES |
| --- | --- | --- | --- |
| 27 nM | 39.4 nM |  | CCN(C(=O)COc1nc(N)nc(-c2ccc(F)cc2)c1-c1cc(C)nc(C(F)F)c1)c1ccccn1 [Example 117, 2-((2-amino-5-(2-(difluoromethyl)-6-methylpyridin-4-yl)-6-(4-fluorophenyl)pyrimidin-4-yl)oxy)-N-ethyl-N-(pyridin-2-yl)acetamide] |
| 18 nM | 28.7 nM |  | CCN(C(=O)COc1nc(N)nc(-c2ccc(F)cc2)c1-c1cc(C)nc(C(F)F)c1)C1COC1 [Example 118, 2-((2-amino-5-(2-(difluoromethyl)-6-methylpyridin-4-yl)-6-(4-fluorophenyl)pyrimidin-4-yl)oxy)-N-ethyl-N-(oxetan-3-yl)acetamide] |
| 5.8 nM and 5.4 nM | 16.8 nM |  | COC(=O)NCCOc1nc(N)nc(-c2ccccc2)c1-c1cc(C)nc(C(F)(F)F)c1 [Example 119, methyl(2-((2-amino-5-(2-methyl-6-(trifluoromethyl)pyridin-4-yl)-6-phenylpyrimidin-4-yl)oxy)ethyl)carbamate] |
| 13 nM and 8.2 nM | 8.8 nM |  | CNC(=O)NCCOc1nc(N)nc(-c2ccccc2)c1-c1cc(C)nc(C(F)(F)F)c1 [Example 120, 1-(2-((2-amino-5-(2-methyl-6-(trifluoromethyl)pyridin-4-yl)-6-phenylpyrimidin-4-yl)oxy)ethyl)-3-methylurea] |
| 0.87 nM and 0.67 nM | 1.2 nM |  | CCNC(=O)N(CC)CCOc1nc(N)nc(-c2ccc(F)cc2)c1-c1cc(C)nc(C(F)F)c1 [Example 123, 1-(2-((2-amino-5-(2-(difluoromethyl)-6-methylpyridin-4-yl)-6-(4-fluorophenyl)pyrimidin-4-yl)oxy)ethyl)-1,3-diethylurea] |
| 1.1 nM and 0.5 nM | 1.7 nM | 535 nM | CCN(CCOc1nc(N)nc(-c2ccc(F)cc2)c1-c1cc(C)nc(C(F)F)c1)C(=O)NC [Example 124, 1-(2-((2-amino-5-(2-(difluoromethyl)-6-methylpyridin-4-yl)-6-(4-fluorophenyl)pyrimidin-4-yl)oxy)ethyl)-1-ethyl-3-methylurea] |
| 8.7 nM | 18.1 nM | 1890 nM | Cc1cc(-c2c(OCC3(CO)CCOCC3)nc(N)nc2-c2ccc(F)cc2)cc(C(F)F)n1 [Example 125, (4-(((2-amino-5-(2-(difluoromethyl)-6-methylpyridin-4-yl)-6-(4-fluorophenyl)pyrimidin-4-yl)oxy)methyl)tetrahydro-2H-pyran-4-yl)methanol] |
| 40 nM | 92 nM |  | CCc1nn[nH]c1COc1nc(N)nc(-c2ccc(F)cc2)c1-c1cc(C)nc(C(F)F)c1 [Example 137, 5-(2-(difluoromethyl)-6-methylpyridin-4-yl)-4-((4-ethyl-1H-1,2,3-triazol-5-yl)methoxy)-6-(4-fluorophenyl)pyrimidin-2-amine] |
| 8.1 nM | 11.7 nM |  | CNC(=O)OCCOc1nc(N)nc(-c2ccc(F)cc2)c1-c1cc(C)nc(C(F)F)c1 [Example 143, 2-((2-amino-5-(2-(difluoromethyl)-6-methylpyridin-4-yl)-6-(4-fluorophenyl)pyrimidin-4-yl)oxy)ethyl methylcarbamate] |
| 4.2 nM | 4.5 nM |  | CNC(=O)OCCOc1nc(N)nc(-c2ccccc2)c1-c1cc(C)nc(C(F)(F)F)c1 [Example 144, 2-((2-amino-5-(2-methyl-6-(trifluoromethyl)pyridin-4-yl)-6-phenylpyrimidin-4-yl)oxy)ethyl methylcarbamate] |
| 5.6 nM | 4 nM |  | CCN(CCOc1nc(N)nc(-c2ccc(F)cc2)c1-c1cc(C)nc(C(F)F)c1)c1ncccn1 [Example 146, 5-(2-(difluoromethyl)-6-methylpyridin-4-yl)-4-(2-(ethyl(pyrimidin-2-yl)amino)ethoxy)-6-(4-fluorophenyl)pyrimidin-2-amine] |
|  | 13 nM | 5460 nM | Cc1cc(-c2c(OCCN(C)c3nccc(N)n3)nc(N)nc2-c2ccc(F)cc2)cc(C(F)F)n1 [Example 147, N^2-(2-((2-amino-5-(2-(difluoromethyl)-6-methylpyridin-4-yl)-6-(4-fluorophenyl)pyrimidin-4-yl)oxy)ethyl)-N^2-methylpyrimidine-2,4-diamine] |
|  | 2.7 nM and 3.2 nM | 98 nM | Cc1cc(-c2c(OCCN(C)c3cccnn3)nc(N)nc2-c2ccc(F)cc2)cc(C(F)F)n1 [Example 150, N-(2-((2-amino-5-(2-(difluoromethyl)-6-methylpyridin-4-yl)-6-(4-fluorophenyl)pyrimidin-4-yl)oxy)ethyl)-N-methylpyridazin-3-amine] |
|  | 5.1 nM | 351 nM | Cc1cc(-c2c(OCCN(C)c3cnccn3)nc(N)nc2-c2ccc(F)cc2)cc(C(F)F)n1 [Example 152, 5-(2-(difluoromethyl)-6-methylpyridin-4-yl)-4-(4-fluorophenyl)-6-(2-(methyl(pyrazin-2-yl)amino)ethoxy)pyrimidin-2-amine] |
| 4.1 nM | 8.9 nM |  | Cc1cc(-c2c(OCCN(CCO)c3ccccn3)nc(N)nc2-c2ccc(F)cc2)cc(C(F)F)n1 [Example 153, 2-((2-((2-amino-5-(2-(difluoromethyl)-6-methylpyridin-4-yl)-6-(4-fluorophenyl)pyrimidin-4-yl)oxy)ethyl)(pyridin-2-yl)amino)ethan-1-ol] |
| 5.4 nM | 24 nM |  | Cc1cc(-c2c(OCCN(C)c3cc(OCCO)ccn3)nc(N)nc2-c2ccc(F)cc2)cc(C(F)F)n1 [Example 155, 2-((2-((2-((2-amino-5-(2-(difluoromethyl)-6-methylpyridin-4-yl)-6-(4-fluorophenyl)pyrimidin-4-yl)oxy)ethyl)(methyl)amino)pyridin-4-yl)oxy)ethan-1-ol] |
| 57 nM | 84 nM |  | Cc1cc(-c2c(OCCN(C)c3ccc(C#N)cn3)nc(N)nc2-c2ccc(F)cc2)cc(C(F)F)n1 [Example 156, 6-((2-((2-amino-5-(2-(difluoromethyl)-6-methylpyridin-4-yl)-6-(4-fluorophenyl)pyrimidin-4-yl)oxy)ethyl)(methyl)amino)nicotinonitrile] |
| 52 nM | 79 nM |  | Cc1cc(-c2c(OCCN(C)c3ccc(S(C)(=O)=O)cn3)nc(N)nc2-c2ccc(F)cc2)cc(C(F)F)n1 [Example 157, 5-(2-(difluoromethyl)-6-methylpyridin-4-yl)-4-(4-fluorophenyl)-6-(2-(methyl(5-(methylsulfonyl)pyridin-2-yl)amino)ethoxy)pyrimidin-2-amine] |
| 231 nM | 627 nM |  | COC(=O)NCC1(COc2nc(N)nc(-c3ccc(F)cc3)c2-c2cc(C)nc(C(F)F)c2)CCOCC1 [Example 158, methyl ((4-(((2-amino-5-(2-(difluoromethyl)-6-methylpyridin-4-yl)-6-(4-fluorophenyl)pyrimidin-4-yl)oxy)methyl)tetrahydro-2H-pyran-4-yl)methyl)carbamate] |
| 184 nM | 336 nM |  | Cc1cc(-c2c(OCC(=O)NCC3CCOCC3)nc(N)nc2-c2ccc(F)cc2)cc(C(F)F)n1 [Example 160, 2-((2-amino-5-(2-(difluoromethyl)-6-methylpyridin-4-yl)-6-(4-fluorophenyl)pyrimidin-4-yl)oxy)-N-((tetrahydro-2H-pyran-4-yl)methyl)acetamide] |
| 14 nM | 44 nM |  | Cc1cc(-c2c(OCC(=O)NCC(F)(F)F)nc(N)nc2-c2ccc(F)cc2)cc(C(F)F)n1 [Example 161, 2-((2-amino-5-(2-(difluoromethyl)-6-methylpyridin-4-yl)-6-(4-fluorophenyl)pyrimidin-4-yl)oxy)-N-(2,2,2-trifluoroethyl)acetamide] |
| 8.4 nM | 21.1 nM |  | Cc1cc(-c2c(OCC(=O)NCC(C)(F)F)nc(N)nc2-c2ccc(F)cc2)cc(C(F)F)n1 [Example 162, 2-((2-amino-5-(2-(difluoromethyl)-6-methylpyridin-4-yl)-6-(4-fluorophenyl)pyrimidin-4-yl)oxy)-N-(2,2-difluoropropyl)acetamide] |
| 7.1 nM | 9.7 nM |  | Cc1cc(-c2c(OCCCS(C)(=N)=O)nc(N)nc2-c2ccc(F)cc2)cc(C(F)F)n1 (stereo not shown) [Example 169, (3-((2-amino-5-(2-(difluoromethyl)-6-methylpyridin-4-yl)-6-(4-fluorophenyl)pyrimidin-4-yl)oxy)propyl)(imino)(methyl)-λ^6-sulfanone] |
| 1.1 nM and 1.6 nM | 1.1 nM (2×) and 2.9 nM | 33 nM | Cc1cc(-c2c(OCc3nccn3C3CC3)nc(N)nc2-c2ccc(F)cc2)cc(C(F)F)n1 [Example 170, 4-((1-cyclopropyl-1H-imidazol-2-yl)methoxy)-5-(2-(difluoromethyl)-6-methylpyridin-4-yl)-6-(4-fluorophenyl)pyrimidin-2-amine] |
| 4.1 nM | 3.6 nM |  | Cc1cc(-c2c(OCc3nccn3C3COC3)nc(N)nc2-c2ccc(F)cc2)cc(C(F)F)n1 [Example 171, 5-(2-(difluoromethyl)-6-methylpyridin-4-yl)-4-(4-fluorophenyl)-6-((1-(oxetan-3-yl)-1H-imidazol-2-yl)methoxy)pyrimidin-2-amine] |
| 19 nM | 15 nM |  | Cc1cc(-c2c(OCc3nccn3CC(C)(C)O)nc(N)nc2-c2ccc(F)cc2)cc(C(F)F)n1 [Example 175, 1-(2-(((2-amino-5-(2-(difluoromethyl)-6-methylpyridin-4-yl)-6-(4-fluorophenyl)pyrimidin-4-yl)oxy)methyl)-1H-imidazol-1-yl)-2-methylpropan-2-ol] |

— US20210355104A1, “ADENOSINE RECEPTOR BINDING COMPOUNDS” (Nikang Therapeuticsm Inc., priority 2018, published 2021)
